Measured values reported in patent publication US20190022239A1, “NOVEL BIOMOLECULE CONJUGATES AND USES THEREFOR” (The University of Western Australia, priority 2016, published 2019).
Ends that are not written are not given here. FAM = fluorescein label (FAM, fluorescein-labelled)

Tests used:
tumour ECM = test: Co-localisation of CSG with ECM markers in tumour tissue sections; type: binding, mouse and human
Protocol: Following incubation of whole tissue (for mouse insulinoma and human breast cancer) or 8 μm tissue cross section, (for mouse and human HCC) with FAM-CSG peptide, tissue cross sections were co-stained with 0.3 μg in 100 μL of anti-nidogen-1 (Rat anti-monoclonal mouse nidogen-1, Millipore) or anti-collagen-1 (Rabbit polyclonal collagen 1, Abeam) markers of ECM, for 1 hr at room temperature. Stained sections were washed 3× with 1×TBS buffer. Tissue sections were re-incubated with donkey anti-Rat or Rabbit IgG (H+L) secondary antibody Alexa 594 (0.4 μg in 100 μL for 30 min. at room temperature), followed by 3×wash with 1×TBS buffer. Co-localisation of CSG with these ECM markers highlights the specificity of CSG binding to tumour ECM (FIG. 2). Co-localisation was not observed in normal healthy tissue.

occluded arteries = test: Dipping assay of occluded arteries from a human patient; type: binding; conditions: occlusive peripheral vascular disease, after limb amputation
fibrotic tissue = test: Binding to liver tissue sections of mice fed choline deficient diet; design: species or system mice (C57BL/6 strain)
Protocol: Mice (C57BL/6 strain) were fed a choline deficient diet, for 4 weeks (early liver fibrosis), 16 weeks (advanced fibrosis-cirrhosis) or 28 weeks (advanced HCC), after which liver tissue was examined. Acetone-fixed fresh frozen 8 μm issue cross sections were incubated with either 1 μM FAM-CSG or 5 μM FAM-ARA for 30 min in 1×PBS buffer at room temperature, FAM-CSG or FAM-ARA binding were confirmed using anti-FITC-HRP antibody staining.

aorta containing plaque = test: In vivo accumulation of FAM-CSG in aorta containing plaque; design: species or system mice; conditions: 1 hr after i.v. injection of 100 μl 1 mM FAM-CSG
human breast carcinoma = test: Dipping of fresh human breast carcinoma samples in FAM-labelled peptide; type: binding
Protocol: Fresh, untreated samples of human breast carcimoma were dipped, 1 hr post surgery, in 20 μM FAM-CSG for 1 hr, followed by 3×1.5 min washes with 1× PBS.
This absence of binding of PAM-ARA was confirmed using anti-fluorescein antibody (data not shown).

[1] = system: hepatocellular carcinoma or breast carcinoma; test: FAM-CSG accumulation in tumours after tail vein injection; type: in vivo, mice; conditions: 100 μL of 1 mM i.v., tissue harvested 1 hr after injection
Protocol: Fluorescein-labelled (FAM)-CSG (CSGRRSSKC; SEQ ID NO:1) (100 μL of 1 mM stock made in sterile 1× PBS) was injected into the tail vein of tumour-bearing mice (hepatocellular carcinoma or breast carcinoma, in C3H and BALB/c strains, respectively). Tissue was harvested without perfusion 1 hr after injection and peptide accumulation observed under UV illumination. […] Homing was specific to tumours, with only clearance organs (intestines, kidneys) showing limited accumulation of FAM-CSG.

[2] = system: plaques from the ApoE null mice; test: Incubation of aorta with FAM-labelled peptide; type: binding; conditions: 20 nmol/ml
Protocol: To determine whether CSG also recognises fibroatheroma, healthy aorta from wild type C57BL/6 mice and aorta from ApoE null mice were incubated with 20 nmol/ml fluorescein-labelled FAM-CSG or ARA control.

## CSGRRSSKC
Tumour ECM; murine insulinoma and HCC, human breast carcinoma and HCC
  co-localisation with ECM markers in tumours: co-localises with two known ECM markers, collagen-1 and nidogen-1
Tumour ECM; normal healthy tissue
  co-localisation with ECM markers in normal healthy tissue: not observed
Occluded arteries
  binding to human occluded arteries and plaques: specific binding of CSG to the occluded arteries and specific accumulation of CSG in plaques
Fibrotic tissue; 4, 16 or 28 weeks choline deficient diet, 1 μM FAM-CSG, 30 min
  binding to fibrotic liver tissue: effectively binds fibrotic tissue at all stages
Aorta containing plaque
  co-localisation of in vivo accumulation with ECM marker: co-localises with the ECM marker laminin
Human breast carcinoma; excess 1 mg unlabeled CSG
  effect of preincubation with unlabeled peptide on FAM-CSG accumulation: abolished the FAM-CSG specific penetration and accumulation in tumours

## FAM-ARA: control fluorescein-labelled (FAM)-ARA peptide, ARALPSQRSR (SEQ ID NO:5) ({FAM}-ARALPSQRSR) [reference compound]
Human breast carcinoma; control peptide
  binding to human breast carcinoma tissue: showed no binding to the human breast carcinoma tissue

## FAM-CSG: Fluorescein-labelled (FAM)-CSG (CSGRRSSKC; SEQ ID NO:1) ({FAM}-CSGRRSSKC; cysteine pairing not given here)
Fibrotic tissue; 1 μM, 30 min
  co-localisation with ECM marker nidogen-1 in fibrotic liver: co-localised with staining for the ECM marker nidogen-1
Fibrotic tissue; mice fed normal chow diet
  binding to normal liver: limited binding
[1]
  peptide accumulation in tumours under UV illumination: accumulates in both tumour types
[2]
  binding to aortic plaques: specifically bound to, and accumulated in, plaques
Human breast carcinoma; 20 μM for 1 hr
  binding to human breast carcinoma tissue: bound specifically to the tumour tissue and not to normal or marginal tissue
